From patent US8067432B2, “Liposomal, ring-opened camptothecins with prolonged, site-specific delivery of active drug to solid tumors” (University of Kentucky Research Foundation, priority 2008, dated 2011)

Columns and labels:
[1] = compared with FDA approved camptothecin analogs (e.g., Camptosar and Hycamtin); cited from earlier work
[2] = Lactone/carboxylate equilibrium in aqueous solution at physiological pH; assay type: physicochemical; conditions: physiological pH (7.4)
[3] = Lactone/carboxylate form and lactone half-life in plasma; assay type: in vitro ADME, rat

CC[C@@]1(O)C(=O)OCc2c1cc1n(c2=O)Cc2c-1nc1ccc(O)cc1c2[Si](C)(C)C(C)(C)C [DB-67, 7-t-butyldimethylsilyl-10-hydroxycamptothecin]
Potency in in vitro cytotoxicity assays [1]: at least comparable potency

CC[C@@]1(O)C(=O)OCc2c1cc1n(c2=O)Cc2cc3ccccc3nc2-1 [camptothecin]
Fraction in the carboxylate form [2]: approximately 70%
Fraction in lactone (active) form ([3]; in plasma): ~30%
half-life ([3]; rat plasma): ~40 min
